According to patent publication US20160222014A1, “COMPOUNDS FOR REGULATING FAK AND/OR SRC PATHWAYS” (ASANA BIOSCIENCES, LLC, priority 2013, published 2016):

Columns and labels:
JAK2 = JAK2 (Homo sapiens, UniProt O60674); assay: JAK2 biochemical potency; conditions: read-out: JAK2 HTRF IC50
Recombinant Src enzyme = target: T1, Recombinant Src enzyme (Homo sapiens, UniProt P12931); assay: Src HTRF assay; format: biochemical
T1 construct: purchased Millipore 14-326; host or cells: Sf21 insect cells
Outline: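 Run as for the FAK HTRF assay (same buffer, supplements, compound preparation and procedure), with dasatinib included. Reaction contained 0.5 μM biotin-tagged Tyk2 synthetic peptide, 5 nM Src made in Sf21 cells, and a pH7.4-buffer-prepared component at 10 μM final.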

recombinant human FAK1 = target: T2, recombinant human FAK1 (Homo sapiens, UniProt Q05397); assay: FAK1 HTRF assay; format: biochemical
T2 construct: fused on or other part: N-terminal 6xHis tag
Outline: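 IC50 values derive from HTRF % inhibition (ratio 665/620 nm, Eu–anti-phosphotyrosine 0.1 nM, SA-APC 12 nM). The kinase step ran 45 min at room temperature, pairing 10 nM His-FAK1(692–end) from baculovirus with 0.5 μM gastrin Tyr87 biotin-peptide and a reagent at 10 μM final, pH 7.4. Compound dilutions began at 10 μM.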

T1 sequence (P12931 whole entry): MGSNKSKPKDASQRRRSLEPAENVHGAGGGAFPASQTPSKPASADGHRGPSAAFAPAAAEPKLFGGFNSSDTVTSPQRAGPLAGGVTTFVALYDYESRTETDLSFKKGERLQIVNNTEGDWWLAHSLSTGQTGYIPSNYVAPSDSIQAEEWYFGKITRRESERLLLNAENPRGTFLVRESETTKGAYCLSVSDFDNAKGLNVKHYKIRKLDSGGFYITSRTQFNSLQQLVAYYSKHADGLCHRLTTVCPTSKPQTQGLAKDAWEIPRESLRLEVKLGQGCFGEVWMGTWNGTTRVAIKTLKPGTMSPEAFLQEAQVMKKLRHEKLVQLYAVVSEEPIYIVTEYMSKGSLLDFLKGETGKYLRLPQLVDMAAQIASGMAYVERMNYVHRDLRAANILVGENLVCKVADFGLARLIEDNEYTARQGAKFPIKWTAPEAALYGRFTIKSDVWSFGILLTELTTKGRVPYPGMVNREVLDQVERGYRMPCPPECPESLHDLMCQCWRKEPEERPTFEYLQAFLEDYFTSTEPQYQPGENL
T2 sequence (Q05397 422-680 limits assumed): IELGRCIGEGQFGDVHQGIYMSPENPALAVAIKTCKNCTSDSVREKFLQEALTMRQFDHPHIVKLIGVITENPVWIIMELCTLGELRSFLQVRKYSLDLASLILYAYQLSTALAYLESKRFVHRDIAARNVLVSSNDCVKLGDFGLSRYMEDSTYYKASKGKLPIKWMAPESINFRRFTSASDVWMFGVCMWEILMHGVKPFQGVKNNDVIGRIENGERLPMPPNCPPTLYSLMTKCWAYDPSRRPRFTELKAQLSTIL
JAK2, sequence (O60674 whole entry, species assumed): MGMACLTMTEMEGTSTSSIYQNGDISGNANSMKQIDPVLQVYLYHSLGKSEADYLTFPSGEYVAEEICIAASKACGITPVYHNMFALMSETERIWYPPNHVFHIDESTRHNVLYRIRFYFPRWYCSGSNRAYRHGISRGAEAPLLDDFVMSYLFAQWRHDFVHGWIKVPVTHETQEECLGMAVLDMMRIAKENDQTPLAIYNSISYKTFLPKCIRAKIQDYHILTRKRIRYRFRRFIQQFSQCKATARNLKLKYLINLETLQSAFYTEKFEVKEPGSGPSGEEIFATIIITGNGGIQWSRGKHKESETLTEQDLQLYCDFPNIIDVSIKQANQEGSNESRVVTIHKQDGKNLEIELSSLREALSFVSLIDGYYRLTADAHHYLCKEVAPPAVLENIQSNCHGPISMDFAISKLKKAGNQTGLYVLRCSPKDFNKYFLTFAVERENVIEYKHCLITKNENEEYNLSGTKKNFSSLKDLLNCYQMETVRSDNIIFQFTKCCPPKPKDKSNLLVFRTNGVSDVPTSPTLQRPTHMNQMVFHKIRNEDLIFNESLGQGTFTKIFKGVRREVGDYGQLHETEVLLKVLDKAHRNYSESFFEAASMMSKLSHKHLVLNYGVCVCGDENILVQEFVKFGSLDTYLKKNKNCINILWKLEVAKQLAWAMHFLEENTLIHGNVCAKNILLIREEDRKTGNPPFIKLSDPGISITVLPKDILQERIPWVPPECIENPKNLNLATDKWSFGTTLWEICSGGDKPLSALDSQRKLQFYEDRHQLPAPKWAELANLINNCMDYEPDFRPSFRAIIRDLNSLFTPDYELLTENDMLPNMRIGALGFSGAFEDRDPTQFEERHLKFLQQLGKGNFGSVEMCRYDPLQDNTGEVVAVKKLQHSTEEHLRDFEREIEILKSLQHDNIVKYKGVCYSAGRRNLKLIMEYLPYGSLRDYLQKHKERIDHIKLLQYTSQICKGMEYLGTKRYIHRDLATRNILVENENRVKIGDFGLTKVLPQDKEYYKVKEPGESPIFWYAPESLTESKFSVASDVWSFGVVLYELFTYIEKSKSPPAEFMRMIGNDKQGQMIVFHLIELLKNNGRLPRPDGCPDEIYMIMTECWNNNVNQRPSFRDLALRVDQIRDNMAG

SMILES	IC50 (JAK2)	IC50 (Recombinant Src enzyme)	IC50 (recombinant human FAK1)
O=C1CCc2cc(Nc3ncc4cnn(Cc5ccccc5OC(F)F)c4n3)ccc2N1 [Example 21]	< 20 nM	< 20 nM	
FC(F)Oc1ccccc1Cn1ccc2cnc(Nc3ccc4ncsc4c3)nc21 [Example 36]	< 20 nM		
CN(c1ncccc1Cn1ncc2cnc(Nc3ccc4[nH]c(=O)[nH]c4c3)cc21)S(C)(=O)=O [Example 142]		> 1000 nM	< 20 nM
O=C1CCc2cc(Nc3ncc4ccn(S(=O)(=O)c5cccc6cccnc56)c4n3)ccc2N1 [Example 169]		< 20 nM	< 20 nM
CN(c1ncccc1Cn1ccc2cnc(Nc3ccc(NCCO)cc3)nc21)S(C)(=O)=O [Example 201]	< 20 nM		

Results, then the compound that gave them:

IC50 (JAK2)	IC50 (Recombinant Src enzyme)	IC50 (recombinant human FAK1)	SMILES
< 20 nM	< 20 nM		CN(c1ncccc1Cn1ncc2cnc(Nc3ccc4c(c3)CCC(=O)N4)nc21)S(C)(=O)=O [Example 202]
	< 20 nM	< 20 nM	O=C1CCc2cc(Nc3ncc4ccn(Cc5cccnc5N5CCCS5(=O)=O)c4n3)ccc2N1 [Example 216]
< 20 nM		< 20 nM	O=S(=O)(c1cccc2nsnc12)n1ccc2cnc(Nc3ccc(N4CCNCC4)cc3)nc21 [Example 253]
		< 20 nM	Cn1cc(Nc2ncc3ccn(S(=O)(=O)c4cccc5cccnc45)c3n2)cn1 [Example 318]
> 1000 nM	> 1000 nM	< 20 nM	COc1cc(N2CCNCC2)ccc1Nc1cc2c(ccn2S(=O)(=O)c2cccc3cccnc23)cn1 [Example 330, N-(2-Methoxy-4-(piperazin-1-yl)phenyl)-1-(quinolin-8-ylsulfonyl)-1H-pyrrolo[3,2-c]pyridin-6-amine]
	< 20 nM	< 20 nM	Cc1cc(Nc2ncc3cnn(S(=O)(=O)c4cccc5cccnc45)c3n2)ccc1N1CCNCC1 [Example 332]
		< 20 nM	CN(c1ncccc1Cn1ccc2cnc(Nc3ccc(N4CCCC4CO)cc3)nc21)S(C)(=O)=O (stereo not drawn) [Example 536]
